According to US7501430B2 (ArQule, Inc., priority 2006, dated 2009):

Target: T1, mutant B-RAF (Homo sapiens, UniProt P15056, V600E)
T1 construct: purchased Upstate (Charlottesville, Va.)
Assay: RAF biochemical assay (MEK-1 phosphorylation, anti-phospho MEK1/2 detection)
Settings: not given
Summary of the method: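 Detection is by ELISA: after a 30 min room-temperature reaction, plate-captured GST-MEK-1 is probed with anti-phospho MEK1/2, then an AP-tagged secondary antibody with fluorescent Attophos read-out.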

T1 sequence (P15056 whole entry V600E): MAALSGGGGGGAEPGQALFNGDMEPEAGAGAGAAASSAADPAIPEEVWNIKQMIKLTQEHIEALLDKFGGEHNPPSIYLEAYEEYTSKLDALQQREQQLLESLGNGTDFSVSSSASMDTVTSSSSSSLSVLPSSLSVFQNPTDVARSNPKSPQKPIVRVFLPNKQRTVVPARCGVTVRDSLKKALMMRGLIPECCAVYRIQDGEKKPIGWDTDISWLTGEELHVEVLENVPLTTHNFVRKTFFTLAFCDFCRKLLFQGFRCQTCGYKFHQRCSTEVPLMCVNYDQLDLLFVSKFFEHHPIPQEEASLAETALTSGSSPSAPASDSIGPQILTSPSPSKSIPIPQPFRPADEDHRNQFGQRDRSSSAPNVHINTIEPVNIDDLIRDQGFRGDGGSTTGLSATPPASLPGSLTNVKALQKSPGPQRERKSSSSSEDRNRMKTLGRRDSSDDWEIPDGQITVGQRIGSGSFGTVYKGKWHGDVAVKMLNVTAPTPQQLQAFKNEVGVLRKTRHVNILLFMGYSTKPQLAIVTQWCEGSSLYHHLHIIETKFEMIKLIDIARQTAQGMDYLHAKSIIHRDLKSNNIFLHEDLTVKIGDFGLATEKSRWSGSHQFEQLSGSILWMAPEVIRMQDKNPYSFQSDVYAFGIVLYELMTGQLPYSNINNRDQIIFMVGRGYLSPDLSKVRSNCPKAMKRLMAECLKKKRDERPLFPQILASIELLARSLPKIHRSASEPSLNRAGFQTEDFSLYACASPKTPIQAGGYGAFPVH

Row | SMILES | IC50 [nM]
1 | CC(C)(N)C(=O)N1CCC(Nc2nccc(-c3c(-c4ccc(F)cc4)nc4occn34)n2)CC1 [Example 191, N-[1-(2-amino-2-methylpropanoyl)piperidin-4-yl]-4-[6-(4-fluorophenyl)imi-dazo[2,1-b][1,3]oxazol-5-yl]pyrimidin-2-amine] | 3760

Same assay, conditions: @ 10 uM; read-out: Mutant B-RAF % inhibition

Row | SMILES | inhibition at 10 µM [%]
2 | Cc1noc(C)c1NC(=O)N1CCC(Nc2nccc(-c3c(-c4ccc(F)cc4)nc4occn34)n2)CC1 [Example 178, N-(3,5-dimethylisoxazol-4-yl)-4-({4-[6-(4-fluorophenyl)imidazo[2,1-b][1,3]oxazol-5-yl]pyrimidin-2-yl}amino)piperidine-1-carboxamide] | 19
3 | Cc1cc(NC(=O)N2CCC(Nc3nccc(-c4c(-c5ccc(F)cc5)nc5occn45)n3)CC2)c(C(F)(F)F)o1 [Example 186, 4-({4-[6-(4-fluorophenyl)imidazo[2,1-b][1,3]oxazol-5-yl]pyrimidin-2-yl}amino)-N-[5-methyl-2-(trifluoromethyl)-3-furyl]piperidine-1-carboxamide] | 16

Continued, values first:

Row | inhibition at 10 µM [%] | SMILES
4 | 29 | O=C(Cc1ccc(F)cc1)N1CCC(Nc2nccc(-c3c(-c4ccc(F)cc4)nc4occn34)n2)CC1 [Example 179, N-{1-[(4-fluorophenyl)acetyl]piperidin-4-yl}-4-[6-(4-fluorophenyl)imidazo[2,1-b][1,3]oxazol-5-yl]pyrimidin-2-amine]
5 | 45 | O=C(Nc1ccc(C(F)(F)F)cc1)N1CCC(Nc2nccc(-c3c(-c4ccc(F)cc4)nc4occn34)n2)CC1 [Example 182, 4-({4-[6-(4-fluorophenyl)imidazo[2,1-b][1,3]oxazol-5-yl]pyrimidin-2-yl}amino)-N-[4-(trifluoromethyl)phenyl]piperidine-1-carboxamide]
6 | 10 | O=C(Nc1ccccc1F)N1CCC(Nc2nccc(-c3c(-c4ccc(F)cc4)nc4occn34)n2)CC1 [Example 187, N-(2-fluorophenyl)-4-({4-[6-(4-fluorophenyl)imidazo[2,1-b][1,3]oxazol-5-yl]pyrimidin-2-yl}amino)piperidine-1-carboxamide]
7 | 55 | O=C(NCc1ccc(F)cc1)N1CCC(Nc2nccc(-c3c(-c4ccc(F)cc4)nc4occn34)n2)CC1 [Example 194, N-(4-fluorobenzyl)-4-({4-[6-(4-fluorophenyl)imidazo[2,1-b][1,3]oxazol-5-yl]pyrimidin-2-yl}amino)piperidine-1-carboxamide]
8 | 56 | C[C@H](NC(=O)N1CCC(Nc2nccc(-c3c(-c4ccc(F)cc4)nc4occn34)n2)CC1)c1ccccc1 [Example 195, 4-({4-[6-(4-fluorophenyl)imidazo[2,1-b][1,3]oxazol-5-yl]pyrimidin-2-yl}amino)-N-[(1S)-1-phenylethyl]piperidine-1-carboxamide]

Same assay, conditions: read-out: Mutant B-RAF IC50

Row | SMILES | IC50 [nM]
9 | O=C(NC1CCCCO1)N1CCC(Nc2nccc(-c3c(-c4ccc(F)cc4)nc4occn34)n2)CC1 (stereo not shown) [Example 177, 4-({4-[6-(4-fluorophenyl)imidazo[2,1-b][1,3]oxazol-5-yl]pyrimidin-2-yl}amino)-N-(tetrahydro-2H-pyran-2-yl)piperidine-1-carboxamide] | 354
10 | O=C(NCC1CCCCC1)N1CCC(Nc2nccc(-c3c(-c4ccc(F)cc4)nc4occn34)n2)CC1 [Example 183, N-(cyclohexylmethyl)-4-({4-[6-(4-fluorophenyl)imidazo[2,1-b][1,3]oxazol-5-yl]pyrimidin-2-yl}amino)piperidine-1-carboxamide] | 3610
11 | CC(C)(C)NC(=O)N1CCC(Nc2nccc(-c3c(-c4ccc(F)cc4)nc4occn34)n2)CC1 [Example 185, N-(tert-butyl)-4-({4-[6-(4-fluorophenyl)imidazo[2,1-b][1,3]oxazol-5-yl]pyrimidin-2-yl}amino)piperidine-1-carboxamide] | 1580
12 | O=C([C@@H]1CCCN1)N1CCC(Nc2nccc(-c3c(-c4ccc(F)cc4)nc4occn34)n2)CC1 [Example 192, 4-[6-(4-fluorophenyl)imidazo[2,1-b][1,3]oxazol-5-yl]-N-(1-L-prolylpiperidin-4-yl)pyrimidin-2-amine] | 1450
13 | N[C@@H](CCC(=O)O)C(=O)N1CCC(Nc2nccc(-c3c(-c4ccc(F)cc4)nc4occn34)n2)CC1 [Example 196, (4S)-4-amino-5-[4-({4-[6-(4-fluorophenyl)imidazo[2,1-b][1,3]oxazol-5-yl]pyrimidin-2-yl}amino)piperidin-1-yl]-5-oxopentanoic acid] | 3320
14 | O=S(=O)(c1ccccc1)N1CCC(Nc2nccc(-c3c(-c4ccc(F)cc4)nc4occn34)n2)CC1 [Example 197, 4-[6-(4-fluorophenyl)imidazo[2,1-b][1,3]oxazol-5-yl]-N-[1-(phenylsulfonyl)piperidin-4-yl]pyrimidin-2-amine] | 168

The next lines start with the values.

Row | IC50 [nM] | SMILES
15 | 82 | O=C(NCc1ccco1)N1CCC(Nc2nccc(-c3c(-c4ccc(F)cc4)nc4occn34)n2)CC1 [Example 176, 4-({4-[6-(4-fluorophenyl)imidazo[2,1-b][1,3]oxazol-5-yl]pyrimidin-2-yl}amino)-N-(2-furylmethyl)piperidine-1-carboxamide]
16 | 2040 | CC(C)CC(=O)N1CCC(Nc2nccc(-c3c(-c4ccc(F)cc4)nc4occn34)n2)CC1 [Example 180, 4-[6-(4-fluorophenyl)imidazo[2,1-b][1,3]oxazol-5-yl]-N-[1-(3-methylbutanoyl)piperidin-4-yl]pyrimidin-2-amine]
17 | 2700 | O=C(c1ccc(F)cc1)N1CCC(Nc2nccc(-c3c(-c4ccc(F)cc4)nc4occn34)n2)CC1 [Example 181, N-[1-(4-fluorobenzoyl)piperidin-4-yl]-4-[6-(4-fluorophenyl)imidazo[2,1-b][1,3]oxazol-5-yl]pyrimidin-2-amine]
18 | 1280 | O=C(NCCc1ccc(F)cc1)N1CCC(Nc2nccc(-c3c(-c4ccc(F)cc4)nc4occn34)n2)CC1 [Example 184, N-[2-(4-fluorophenyl)ethyl]-4-({4-[6-(4-fluorophenyl)imidazo[2,1-b][1,3]oxazol-5-yl]pyrimidin-2-yl}amino)piperidine-1-carboxamide]
19 | 1500 | CCC(=O)N1CCC(Nc2nccc(-c3c(-c4ccc(F)cc4)nc4occn34)n2)CC1 [Example 188, 4-[6-(4-fluorophenyl)imidazo[2,1-b][1,3]oxazol-5-yl]-N-(1-propionylpiperidin-4-yl)pyrimidin-2-amine]
20 | 1940 | O=C(CCc1ccccc1)N1CCC(Nc2nccc(-c3c(-c4ccc(F)cc4)nc4occn34)n2)CC1 [Example 189, 4-[6-(4-fluorophenyl)imidazo[2,1-b][1,3]oxazol-5-yl]-N-[1-(3-phenylpropanoyl)piperidin-4-yl]pyrimidin-2-amine]
21 | 1150 | NCC(=O)N1CCC(Nc2nccc(-c3c(-c4ccc(F)cc4)nc4occn34)n2)CC1 [Example 190, N-[1-(aminoacetyl)piperidin-4-yl]-4-[6-(4-fluorophenyl)imidazo[2,1-b][1,3]oxazol-5-yl]pyrimidin-2-amine]
22 | 1230 | O=C(Nc1ccc(F)c(F)c1)N1CCC(Nc2nccc(-c3c(-c4ccc(F)cc4)nc4occn34)n2)CC1 [Example 193, N-(3,4-difluorophenyl)-4-({4-[6-(4-fluorophenyl)imidazo[2,1-b][1,3]oxazol-5-yl]pyrimidin-2-yl}amino)piperidine-1-carboxamide]
